Measurements from patent US10155749B2, “Substituted benzimidazolium compounds useful in the treatment of respiratory diseases” (Boehringer Ingelheim International GmbH, priority 2015, dated 2018).

Columns and labels:
[1] = Permeability in CALU-3 cells; format: in vitro ADME; conditions: human, CALU-3 monolayers, pH 7.4, 37° C., 10 μM compound; for Papp A→B at 90 min, 10 μM: apical-to-basal; for Papp B→A at 90 min, 10 μM: basal-to-apical
Experimental: Permeability in CALU-3 Cells:
Permeability measurements across polarized, confluent CALU-3 cell monolayers grown on permeable filter supports are used to provide information on the potential of a compound to pass the lung epithelium. Apparent permeability coefficients (Papp) of the compounds across the CALU-3 cell monolayers are measured (pH 7.4, 37° C.) in apical-to-basal (AB) and basal-to-apical (BA) transport direction.
CALU-3 cells (1-2×10^5 cells/1 cm^2 area) are seeded on filter inserts (Costar transwell polycarbonate filters, 0.4 μm pore size) and cultured (for 10-12 days DMEM) until tight monolayers are formed. Compounds of interest are dissolved in appropriate solvent (DMSO, 10 mM stock solution). Stock solutions are diluted with HTP-4 buffer (128.13 mM NaCl, 5.36 mM KCl, 1 mM MgSO4, 1.8 mM CaCl2, 4.17 mM NaHCO3, 1.19 mM Na2HPO4×7H2O, 0.41 mM NaH2PO4×H2O, 15 mM HEPES, 20 mM glucose, 0.25% BSA, pH 7.4) to prepare the transport solutions (10 μM compound, final DMSO<=0.5%). The transport solution (TL) is applied to the apical or basolateral donor side for measuring A-B or B-A permeability (3 filter replicates), respectively. The receiver side contains the same buffer as the donor side. After 30 min of accommodation, samples are collected at the start t0=0 min and at the end of the experiment tn=90 min from the donor and at 0, 30, 60, and 90 min also from the receiver chamber. Volume removed is […] by HTP-4 buffer. The compound concentration in the samples is measured by HPLC-MS/MS or scintillation counting. The permeability coefficient (Papp) and efflux ratio are calculated according to: Papp [cm/s]=(concentration receiver [nM]*volume receiver [mL]/time interval [sec])*(1/filter area)*(1/donor concentration [nM]).

[2] = target: T1, ENaC (Epithelial Sodium Channel) (Mus musculus, UniProt Q61180+Q9WU38+Q9WU39); test: Ussing Chamber assay (short circuit current, amiloride sensitive I_SC) in M-1 cells; format: cell-based; conditions: Mouse kidney M-1 cells, apical application, 37° C.
T1 construct: Mouse kidney M-1 cells were cultivated in DMEM containing 5% FCS and 5 μM dexamethasone; endogenous in cells; host or cells: Mouse kidney M-1 cells
T1 sequence (Q61180 1-699): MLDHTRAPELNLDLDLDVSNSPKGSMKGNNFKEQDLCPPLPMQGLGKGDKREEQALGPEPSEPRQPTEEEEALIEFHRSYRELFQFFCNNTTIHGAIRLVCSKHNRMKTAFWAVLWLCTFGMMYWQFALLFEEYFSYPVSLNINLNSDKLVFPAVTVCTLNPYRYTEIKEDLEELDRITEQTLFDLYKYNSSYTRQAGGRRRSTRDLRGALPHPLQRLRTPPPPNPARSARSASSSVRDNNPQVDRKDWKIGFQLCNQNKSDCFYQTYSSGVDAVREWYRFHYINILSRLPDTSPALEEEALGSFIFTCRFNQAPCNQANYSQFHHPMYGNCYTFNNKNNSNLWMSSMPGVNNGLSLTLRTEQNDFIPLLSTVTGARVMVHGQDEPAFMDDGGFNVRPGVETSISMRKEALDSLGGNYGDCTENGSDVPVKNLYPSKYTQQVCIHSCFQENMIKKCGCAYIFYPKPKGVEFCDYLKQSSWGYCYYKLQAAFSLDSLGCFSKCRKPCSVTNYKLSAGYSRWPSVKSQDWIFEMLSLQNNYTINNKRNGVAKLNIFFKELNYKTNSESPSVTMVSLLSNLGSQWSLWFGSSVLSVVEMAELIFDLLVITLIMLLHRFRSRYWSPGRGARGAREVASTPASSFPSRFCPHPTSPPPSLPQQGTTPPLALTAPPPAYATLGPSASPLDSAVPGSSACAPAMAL
T1 sequence (Q9WU38 1-638): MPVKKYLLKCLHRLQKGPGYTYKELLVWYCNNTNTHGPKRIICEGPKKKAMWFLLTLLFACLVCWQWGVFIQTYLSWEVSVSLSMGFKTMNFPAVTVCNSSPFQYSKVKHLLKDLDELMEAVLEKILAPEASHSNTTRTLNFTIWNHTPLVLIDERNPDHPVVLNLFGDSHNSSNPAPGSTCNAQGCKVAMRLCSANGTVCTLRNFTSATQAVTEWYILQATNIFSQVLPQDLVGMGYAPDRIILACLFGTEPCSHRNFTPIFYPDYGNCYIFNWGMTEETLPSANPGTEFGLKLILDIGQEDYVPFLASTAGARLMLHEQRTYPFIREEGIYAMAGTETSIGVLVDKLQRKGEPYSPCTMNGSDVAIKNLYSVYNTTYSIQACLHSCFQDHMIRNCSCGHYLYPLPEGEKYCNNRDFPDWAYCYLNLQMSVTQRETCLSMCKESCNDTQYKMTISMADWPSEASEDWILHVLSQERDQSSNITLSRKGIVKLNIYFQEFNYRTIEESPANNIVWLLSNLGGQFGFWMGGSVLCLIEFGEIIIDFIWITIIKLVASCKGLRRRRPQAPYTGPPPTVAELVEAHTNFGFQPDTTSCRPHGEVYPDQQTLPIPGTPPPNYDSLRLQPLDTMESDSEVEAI
T1 sequence (Q9WU39 1-655): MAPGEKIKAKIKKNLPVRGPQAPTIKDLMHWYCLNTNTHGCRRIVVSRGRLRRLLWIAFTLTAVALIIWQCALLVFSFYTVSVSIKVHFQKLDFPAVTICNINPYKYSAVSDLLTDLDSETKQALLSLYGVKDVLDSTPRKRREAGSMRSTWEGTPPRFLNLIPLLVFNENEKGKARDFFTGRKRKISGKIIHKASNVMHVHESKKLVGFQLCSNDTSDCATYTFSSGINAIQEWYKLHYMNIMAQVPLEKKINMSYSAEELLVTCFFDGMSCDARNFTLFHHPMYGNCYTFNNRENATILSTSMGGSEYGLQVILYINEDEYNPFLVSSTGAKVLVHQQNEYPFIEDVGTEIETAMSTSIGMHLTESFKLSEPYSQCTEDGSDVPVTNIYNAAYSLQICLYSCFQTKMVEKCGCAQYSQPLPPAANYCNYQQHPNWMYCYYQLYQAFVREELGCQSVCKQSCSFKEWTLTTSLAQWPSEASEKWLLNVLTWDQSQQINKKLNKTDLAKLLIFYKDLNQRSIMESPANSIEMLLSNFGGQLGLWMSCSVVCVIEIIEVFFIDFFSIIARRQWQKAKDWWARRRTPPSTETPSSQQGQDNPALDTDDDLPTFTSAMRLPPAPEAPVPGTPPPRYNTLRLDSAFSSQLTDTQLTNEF
Experimental: The IC50 values of the example compounds given above were determined in the Ussing Chamber assay.
Ussing Chamber: Mouse kidney M-1 cells were cultivated in DMEM containing 5% FCS and 5 μM dexamethasone for 10 to 12 days on polyester transwell filters. Filters were inserted into a teflon-coated well-plate which fit into the ussing chamber system. Prior to measurement the medium of M-1 cells was replaced with Caco-2 transport buffer (Invitrogen, Germany). During measurements, the Ussing chamber temperature was kept at 37° C. Short circuit currents (I_sc) were measured in the voltage-clamp mode with the software package Lab View for data acquisition and analysis. The transepithelial electrical resistance (TEER) was determined by the application of voltage steps of ±5 mV every 5 sec. Compounds were administered at a final concentration of 3 μM or at increasing concentrations (1-3-10 μM) to the apical solution. At the end of each experiment the amiloride sensitive I_SC was measured by adding 3 μM amiloride to the apical compartment. Results are expressed as inhibition in percent of the amiloride effect or as IC50.

| SMILES | Papp A→B at 90 min, 10 μM [1] [×10⁻⁶ cm/s] | Papp B→A at 90 min, 10 μM [1] [×10⁻⁶ cm/s] | IC50 [2] [nM] |
| --- | --- | --- | --- |
| CC[n+]1c(CNC(=O)c2nc(Cl)c(N)nc2N)n(CCO)c2cc(OCC(=O)NCCC[n+]3cccc([O-])c3)ccc21.O=C([O-])C(F)(F)F [Example 1.01] | 0.04 | 0.06 | 2 |
| CCn1c(CNC(=O)c2nc(Cl)c(N)nc2N)[n+](CC)c2ccc(OCC(=O)N(Cc3nc(C)ccc3O)C[C@H](C)O)cc21.O=C([O-])C(F)(F)F [Example 3.05] | 0.2 | 0.3 | 2 |
| CCCCCCN(C)C(=O)c1cc2c(cc1O[C@H]1COC[C@@H]1O)n(CCO)c(CNC(=O)c1nc(Cl)c(N)nc1N)[n+]2CC.O=C([O-])C(F)(F)F [Example 1.15] | 0.2 | 0.08 | 8 |
| CC[n+]1c(CNC(=O)c2nc(Cl)c(N)nc2N)n(C[C@H](C)O)c2cc(N(C)C)c(C(=O)N3CCN(C(=O)OC(C)(C)C)CC3)cc21.O=C([O-])C(F)(F)F [Example 1.02] | 0.08 | 0.1 | 25 |
| CC[n+]1c(CNC(=O)c2nc(Cl)c(N)nc2N)n(CC2CC2)c2cc(OCC(=O)N(C)Cc3nc(C)ccc3O)ccc21 [Example 1.08] | 0.08 | 0.2 | 1 |
| CCCn1c(CNC(=O)c2nc(Cl)c(N)nc2N)[n+](C)c2ccc(OCC(=O)N(C)Cc3nc(C)ccc3O)cc21 [Example 1.07] |  |  | 3 |
| CCn1c(CNC(=O)c2nc(Cl)c(N)nc2N)[n+](CC)c2cc(C(=O)N3CCN(C(=O)N4CCOCC4)CC3)c(F)cc21 [Example 3.15] |  |  | 1 |
| CCCCCCN(C)C(=O)c1cc2c(cc1N1C[C@H](O)[C@@H](O)C1)n(CCO)c(CNC(=O)c1nc(Cl)c(N)nc1N)[n+]2CC [Example 1.16] |  |  | 11 |
| CCn1c(CNC(=O)c2nc(Cl)c(N)nc2N)[n+](CCO)c2cc(OCC(=O)N3CCN(C(C)=O)CC3)ccc21 [Example 1.14] |  |  | 3 |
| CCn1c(CNC(=O)c2nc(Cl)c(N)nc2N)[n+](CC)c2ccc(OCC(=O)NCCN)cc21 [Example 3.25] |  |  | 1 |
| CC[n+]1c(CNC(=O)c2nc(Cl)c(N)nc2N)n(CC2CCCCC2)c2cc(OCC[n+]3cccc(O)c3)ccc21 [Example 1.03] |  |  | 5 |
| CCNC(=O)c1cc2c(cc1OCC(=O)NC1CCN(C)CC1)n(CC)c(CNC(=O)c1nc(Cl)c(N)nc1N)[n+]2CC [Example 3.18] |  |  | 4 |

More lines, now with the values ahead:

| Papp A→B at 90 min, 10 μM [1] [×10⁻⁶ cm/s] | Papp B→A at 90 min, 10 μM [1] [×10⁻⁶ cm/s] | IC50 [2] [nM] | SMILES |
| --- | --- | --- | --- |
| 0.3 | 0.06 | 5 | CCOCCNC(=O)c1cc2c(cc1N1CCOCC1)n(CC)c(CNC(=O)c1nc(Cl)c(N)nc1N)[n+]2CC.[Cl-] [Example 5.01] |
| 0.2 | 0.2 | 1 | CCn1c(CNC(=O)c2nc(Cl)c(N)nc2N)[n+](CC)c2ccc(OCCNC(=O)CCN(C)C)cc21.Cl [Example 4.01] |
| 0.3 | 0.3 | 1 | CCCCCCN1CCC(NC(=O)c2cc3c(cc2F)n(CC)c(CNC(=O)c2nc(Cl)c(N)nc2N)[n+]3CC)CC1.O=CO.O=C[O-] [Example 10.01] |
| 0.3 | 0.3 | 34 | CCCCCOc1cc2c(cc1C(=O)N1CCN(C(=O)Cc3ccccn3)CC1)[n+](CC)c(CNC(=O)c1nc(Cl)c(N)nc1N)n2C[C@H](C)O.O=C([O-])C(F)(F)F [Example 4.15] |
|  |  | 1 | CCn1c(CNC(=O)c2nc(Cl)c(N)nc2N)[n+](CC)c2ccc(OCCNC(=O)CN3CCC(NC(=O)OC(C)(C)C)CC3)cc21 [Example 4.10] |
|  |  | 0.4 | CCn1c(CNC(=O)c2nc(Cl)c(N)nc2N)[n+](CC)c2ccc(OCCNC(=O)CN3CCN(C)CC3)cc21 [Example 4.05] |
|  |  | 1 | CCn1c(CNC(=O)c2nc(Cl)c(N)nc2N)[n+](CC)c2ccc(OCCNC(=O)CN3CCC(N)CC3)cc21 [Example 6.05] |
|  |  | 23 | CC[n+]1c(CNC(=O)c2nc(Cl)c(N)nc2N)n(C[C@H](C)O)c2cc(N(C)C)c(C(=O)N3CCN(C(=O)c4cncc(O)c4)CC3)cc21 [Example 4.17] |
|  |  | 0.3 | CCn1c(CNC(=O)c2nc(Cl)c(N)nc2N)[n+](CC)c2ccc(OCCNC(=O)C3CCCN3C)cc21 (stereo not shown) [Example 4.06] |
|  |  | 2 | CCOc1cc2c(cc1C(=O)N1CCN(C(=O)Cc3ccccn3)CC1)[n+](CC)c(CNC(=O)c1nc(Cl)c(N)nc1N)n2CC [Example 4.12] |
|  |  | 2 | CCn1c(CNC(=O)c2nc(Cl)c(N)nc2N)[n+](CC)c2ccc(OCCNC(=O)CN3CCOCC3)cc21 [Example 4.02] |
|  |  | 38 | CCNC(=O)c1cc2c(cc1OCC(=O)O)n(CC)c(CNC(=O)c1nc(Cl)c(N)nc1N)[n+]2CC [Example 7.01] |
|  |  | 29 | CCn1c(CNC(=O)c2nc(Cl)c(N)nc2N)[n+](CC)c2cc(C(=O)NC3CCNCC3)c(OCC(=O)O)cc21 [Example 7.02] |
